Molecules are shown by their SMILES. Where two headings read alike, the source gives them in different places.

Data set [1] has as its system TZM-bl cell line. In kind it is cell-based. The procedure, abridged:
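TZM-bl cells (HIV-1 LTR-luciferase) infected with HIV-1NL4-3 with compound at 1 μM; luciferase read 48 h later. Percent inhibition normalized to DMSO wild-type infection (0%) and Nef-defective HIV-1 infection (100% of Nef-dependent effect). Viability in uninfected TZM-bl cells by Cell Titer Blue.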

In data set [2] the test system is HIV-1NL4-3. Kind of data set: HIV-1 infectivity assay in TZM-bl reporter cell line (LTR-luciferase, 48 h). In kind it is cell-based. The settings on record: for inhibition at 1 µM: Human immunodeficiency virus 1, TZM-bl. In a few lines:
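Nef-dependent infectivity in TZM-bl cells: HIV-1NL4-3 infection with 1 μM compound, luciferase read at 48 h, normalized against DMSO wild-type and Nef-defective controls. Compound cytotoxicity in uninfected cells measured by Cell Titer Blue.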

The target in data set [3] is HIV-1 NefNL4-3 (Human immunodeficiency virus type 1 group M subtype B, UniProt P03406, A33V/T15A/T51N/V11I). Kind of data set: Surface plasmon resonance binding to recombinant full-length Nef (NL4-3). The settings on record: for RU30/RUNef (extent of binding): response units at 30 μM relative to Nef immobilized on the SPR chip.
The mark [4] stands for this setting: 1.0 μM, TZM-bl reporter cell line, Table 4, read-out: % Infectivity Inhibition.
Where [5] appears, read: 48 h, Table 1, TZM-bl cells, 1 μM, 48 h, 100% = Nef-defective HIV-1, read-out: HIV-1 Infectivity % Inhibition Norm. to Δ-Nef @ 1 μM.
The mark [6] stands for this setting: KD, M, Table 4, SPR fit 2-step induced fit, KD = koff/kon × koff2/(koff2 + kon2).
[7] abbreviates: Nef NL4-3 Binding, SPR 2-state fitting KD, Table 1, 2-step induced-fit model.
Where [8] appears, read: read-out: Nef NL4-3 Binding, SPR 1:1 or 2-site fitting KD2, Table 1, 2-site fit, second component.
The mark [9] stands for this setting: Table 4, 2-step induced fit, T = 1/koff2.
Where [10] appears, read: KD, M, Table 4, SPR fit 1:1 Langmuir, KD = koff/kon.
The mark [11] stands for this setting: Table 4, 1:1 Langmuir fit, T = 1/koff.

Consider `O=S(=O)(c1cccnc1)N1CCC(c2nn(-c3nc4ccccc4[nH]3)c(O)c2CCc2ccc(F)cc2)CC1` [Compound I-742, 1-(1H-1,3-benzodiazol-2-yl)-4-[2-(4-fluorophenyl)ethyl]-3-[1-(pyridine-3-sulfonyl)piperidin-4-yl]-1H-pyrazol-5-ol], for which the “% Cell Viability” value in data set [1] (human, 1 μM) is listed as 77.3%. Moreover, in data set [1] (human, 1 μM), the “Percent Viability @ 1 μM (TZM-bl cells)” value worked out at 77.3%. Besides, the results for the inhibition at 1 µM in data set [2] (setting [4]) and in data set [2] (setting [5]) were 100% and 125%, respectively. Besides, the results for the Kd in data set [3] (setting [6]), in data set [3] (setting [7]) and in data set [3] (setting [8]) were 1.43e-12 M, 1.43e-12 M and 5.62e-05 M, respectively. The “RU30/RUNef (extent of binding)” value in data set [3] is 2.76E- 03.

As to `Oc1c(CCc2ccc(F)cc2)c(-c2ccc(C(F)(F)F)nc2)nn1-c1nc2ccccc2[nH]1` [Compound I-135, 1-(1H-1,3-benzodiazol-2-yl)-4-[2-(4-fluorophenyl)ethyl]-3-[6-(trifluoromethyl)pyridin-3-yl]-1H-pyrazol-5-ol], the “% Cell Viability” value in data set [1] (human, 1 μM) came out at 91.9%. Also, the “Percent Viability @ 1 μM (TZM-bl cells)” value in data set [1] (human, 1 μM) is recorded as 91.9%. In addition, the inhibition at 1 µM in data set [2] (setting [4]) and in data set [2] (setting [5]) was 35.7% each time. Further, the Kd in data set [3] was 6.36e-07 M; in data set [3] (setting [6]), 1.47e-08 M; in data set [3] (setting [7]) it was 1.47e-08 M. Besides, the “T, minutes (residence time)” value in data set [3] (setting [9]) worked out at 1.47E + 03 minutes. The “RU30/RUNef (extent of binding)” value in data set [3] was 2.87E- 03.

For `Oc1c(CCC2CCOCC2)c(-c2ccc(F)cc2)nn1-c1nc2ccccc2[nH]1` [Compound I-182, 1-(1H-1,3-benzodiazol-2-yl)-3-(4-fluorophenyl)-4-[2-(oxan-4-yl)ethyl]-1H-pyrazol-5-ol], the “% Cell Viability” value in data set [1] (human, 1 μM) is reported as 90%. Moreover, the inhibition (usually the change of the read-out against control, counted positive when it falls) at 1 µM in data set [2] (setting [4]) came to 100%. Also, in data set [3] (setting [6]), the Kd came out at 4.42e-06 M. Also, the “T, minutes (residence time)” value in data set [3] (setting [9]) stood at 9.98E + 00 minutes. The “RU30/RUNef (extent of binding)” value in data set [3] turned out to be 1.11E- 02.

As for `Oc1c(CC2CCOCC2)c(-c2cccc(F)c2)nn1-c1nc2ccccc2[nH]1` [Compound I-184, 1-(1H-1,3-benzodiazol-2-yl)-3-(3-fluorophenyl)-4-[(oxan-4-yl)methyl]-1H-pyrazol-5-ol], the “% Cell Viability” value in data set [1] (human, 1 μM) came out at 100%. In data set [2] (setting [4]), the inhibition at 1 µM was found to be 100%. For the same molecule, in data set [3] (setting [10]), the Kd was found to be 3.52e-06 M. In data set [3] (setting [11]), the “T, minutes (residence time)” value stood at 6.46E + 00 minutes. Besides, in data set [3], the “RU30/RUNef (extent of binding)” value is on record as 2.48E- 03.

On to `Oc1c(CCc2ccc(F)cc2)c(C2CCN(CC(F)(F)F)CC2)nn1-c1nc2ccccc2[nH]1` [Compound I-1003, 1-(1H-1,3-benzodiazol-2-yl)-4-[2-(4-fluorophenyl)ethyl]-3-[1-(2,2,2-trifluoroethyl)piperidin-4-yl]-1H-pyrazol-5-ol], for which the “Percent Viability @ 1 μM (TZM-bl cells)” value in data set [1] (human, 1 μM) is 100.9%. Moreover, in data set [2] (setting [5]), the inhibition at 1 µM was found to be 42.3%. Moreover, the Kd in data set [3] amounted to 1.81e-06 M.

For the molecule `Cc1nccn1CCc1c(-c2ccc(C(F)(F)F)cc2)nn(-c2nc3ccccc3[nH]2)c1O` [Compound I-142, 1-(1H-1,3-benzodiazol-2-yl)-4-[2-(2-methyl-1H-imidazol-1-yl)ethyl]-3-[4-(trifluoromethyl)phenyl]-1H-pyrazol-5-ol], the “Percent Viability @ 1 μM (TZM-bl cells)” value in data set [1] (human, 1 μM) turned out to be 100.2%. In addition, the inhibition at 1 µM in data set [2] (setting [5]) is -7.8%. For the same molecule, in data set [3], the Kd worked out at 3.28e-05 M.

With `CC(=O)N1CCC(c2nn(-c3nc4cc(Cl)ccc4[nH]3)c(O)c2CCn2nccn2)CC1` [Compound I-704, 1-{4-[1-(5-chloro-1H-1,3-benzodiazol-2-yl)-5-hydroxy-4-[2-(2H-1,2,3-triazol-2-yl)ethyl]-1H-pyrazol-3-yl]piperidin-1-yl}ethan-1-one], in data set [1] (human, 1 μM), the “% Cell Viability” value turned out to be 99.4% and the “Percent Viability @ 1 μM (TZM-bl cells)” value was found to be 99.4%. Further, the inhibition at 1 µM in data set [2] (setting [4]) worked out at 6.6%. The inhibition at 1 µM in data set [2] (setting [5]) came to 6.6%. Moreover, in data set [3], the Kd turned out to be 3.62e-06 M and the “RU30/RUNef (extent of binding)” value was 1.92E- 03. In data set [3] (setting [10]), the Kd is 3.62e-06 M. The “T, minutes (residence time)” value in data set [3] (setting [11]) was 7.61E + 00 minutes.

Take `O=C(O)c1ccc(-c2nn(-c3nc4ccccc4[nH]3)c(O)c2CCc2ccc(F)cc2)cc1` [Compound I-1101, 4-[1-(1H-1,3-benzodiazol-2-yl)-4-[2-(4-fluorophenyl)ethyl]-5-hydroxy-1H-pyrazol-3-yl]benzoic acid]: the “Percent Viability @ 1 μM (TZM-bl cells)” value in data set [1] (human, 1 μM) stood at 99.3%. The inhibition at 1 µM in data set [2] (setting [5]) is -9.9%. Also, the Kd in data set [3] came out at 3.76e-07 M.

For `Cn1c(-n2nc(-c3ccc(S(C)(=O)=O)cc3)c(CCc3ccc(F)cc3)c2O)nc2ccccc21` [Compound I-403, 4-[2-(4-fluorophenyl)ethyl]-3-(4-methanesulfonylphenyl)-1-(1-methyl-1H-1,3-benzodiazol-2-yl)-1H-pyrazol-5-ol], in data set [1] (human, 1 μM), the “% Cell Viability” value is on record as 99.9% and the “Percent Viability @ 1 μM (TZM-bl cells)” value came out at 99.9%. Further, in data set [2] (setting [4]), the inhibition at 1 µM stood at 4.1%. Besides, in data set [2] (setting [5]), the inhibition at 1 µM amounted to 4.1%. Moreover, in data set [3], the Kd was 2.4e-06 M and the “RU30/RUNef (extent of binding)” value was determined as 2.88E- 03. The Kd in data set [3] (setting [10]) worked out at 2.4e-06 M. In addition, the “T, minutes (residence time)” value in data set [3] (setting [11]) is on record as 3.63E + 00 minutes.

Consider `CC[C@H](O)C(=O)N1CCC(c2nn(-c3nc4ccccc4[nH]3)c(O)c2CCc2ccc(F)cc2)CC1` [Compound I-733, (2S)-1-{4-[1-(1H-1,3-benzodiazol-2-yl)-4-[2-(4-fluorophenyl)ethyl]-5-hydroxy-1H-pyrazol-3-yl]piperidin-1-yl}-2-hydroxybutan-1-one], for which the “Percent Viability @ 1 μM (TZM-bl cells)” value in data set [1] (human, 1 μM) was 98.8%. Also, the inhibition at 1 µM in data set [2] (setting [5]) came to 56.5%. Also, the Kd in data set [3] was 2.69e-05 M.

For the molecule `Oc1c(CCc2ccc(F)cc2)c(C2CCCO2)nn1-c1nc2ccccc2[nH]1` (stereo not shown) [Compound I-136, 1-(1H-1,3-benzodiazol-2-yl)-4-[2-(4-fluorophenyl)ethyl]-3-(oxolan-2-yl)-1H-pyrazol-5-ol], in data set [1] (human, 1 μM), the “% Cell Viability” value came out at 99.9%. In data set [1] (human, 1 μM), the “Percent Viability @ 1 μM (TZM-bl cells)” value amounted to 99.9%. The inhibition at 1 µM in data set [2] (setting [4]) and in data set [2] (setting [5]) was 26.5% throughout. For the same molecule, the Kd in data set [3] was 1.6e-07 M; in data set [3] (setting [6]), 2.46e-06 M; in data set [3] (setting [7]), 2.46e-06 M; in data set [3] (setting [8]) it was 4.77e-06 M. Further, in data set [3] (setting [9]), the “T, minutes (residence time)” value is on record as 3.32E + 00 minutes. In addition, the “RU30/RUNef (extent of binding)” value in data set [3] came to 5.11E- 03.

Consider `O=S(=O)(C1CCCCC1)N1CCC(c2nn(-c3nc4ccccc4[nH]3)c(O)c2CCc2ccc(F)cc2)CC1` [Compound I-747, 1-(1H-1,3-benzodiazo1-2-y1)-3-[1-(cyclohexanesulfonyl)piperidin-4-yl]-4-[2-(4-fluorophenyl)ethyl]-1H-pyrazol-5-ol], for which the “Percent Viability @ 1 μM (TZM-bl cells)” value in data set [1] amounted to 86.9%. Further, in data set [2] (1 μM, TZM-bl reporter cells, % of control), the “HIV Infectivity % Control @ 1 μM” value was determined as 30.9%. The “HIV-1 Infectivity % Inhibition Norm. to Δ-Nef @ 1 μM” value in data set [2] (1 μM, TZM-bl, normalized: DMSO wild-type HIV-1 = 0%, Nef-defective HIV-1 = 100%) was 179.3%; in data set [2] (Table 1, TZM-bl cells, 1 μM, 48 h, 100% = Nef-defective HIV-1) it was 179.3%. The Kd in data set [3] (KD, two-step induced-fit model, Reichert SPR, Table 3, read-out: Reichert SPR Nef NL43 (M) two-step fitting) is 0.000257 M; in data set [3] (Table 1, 1:1 Langmuir fit where the KD2 cell says '1 to 1 fitting', else 2-site fit, read-out: Nef NL4-3 Binding, SPR 1:1 or 2-site fitting KD1), 8.91e-08 M; in data set [3] (Table 1, 2-site fit, second component, read-out: Nef NL4-3 Binding, SPR 1:1 or 2-site fitting KD2), 1.56e-06 M; in data set [3] (Table 1, 2-step induced-fit model, read-out: Nef NL4-3 Binding, SPR 2-state fitting KD), 0.000257 M.

For the origin of these results see patent US20220380341A1, “INHIBITORS OF HIV-1 NEF FOR THE TREATMENT OF HIV DISEASE” (priority 2018, published 2022).
